Literature values as cited in patent US20190183792A1, “COMPOSITION AND METHOD FOR TREATING HERPESVIRUS IN MAMMALS” (VELOCE BIOPHARMA, LLC, priority 2016, published 2019).

Legend:
[1] = system: ocular herpesvirus infection; settings: canine models in vivo
[2] = compared among the antivirals
Feline Herpesvirus = settings: research by Nasisse
[3] = system: Human herpes simplex virus

## Nc1ccn(C[C@@H](CO)OCP(=O)(O)O)c(=O)n1 [Cidofovir]
[1]
  local ocular toxicity: local ocular toxicity is significant
  viral shedding: decrease viral shedding

## O=c1[nH]c(=O)n([C@H]2C[C@H](O)[C@@H](CO)O2)cc1C(F)(F)F [Triflurothymidine]
[2]
  effectiveness: most effective
  solubility: most soluble
  toxicity: least toxic
Feline Herpesvirus
  effectiveness against Feline Herpesvirus (rank order): most effective

## O=c1[nH]c(=O)n([C@H]2C[C@H](O)[C@@H](CO)O2)cc1I [Idoxuridine]
[2]
  solubility: poorly soluble

## Nc1nc2c(ncn2COCCO)c(=O)[nH]1 [Acyclovir]
Feline Herpesvirus
  effectiveness against Feline Herpesvirus (rank order): not effective
[3]
  effectiveness against Human herpes simplex virus: most effective

## Nc1ncnc2c1ncn2[C@@H]1O[C@H](CO)[C@@H](O)[C@@H]1O [Adenine Arabinoside]
Feline Herpesvirus
  effectiveness against Feline Herpesvirus (rank order): then Adenine Arabinoside
